{"source": "paper PMC6253949", "about": "“The Inhibitory Action of Kohamaic Acid A Derivatives on Mammalian DNA Polymerase β” (Molecules, 2008)", "assay_type_in_all_cases": "biochemical", "key": {"[1]": {"biological_target": "T1, Human DNA polymerase η (Homo sapiens, UniProt Q9Y253)", "T1 construct": "His6 (C); made in house; host or cells: SF9 insect cells (baculovirus)", "T1 sequence (Q9Y253 1-713)": "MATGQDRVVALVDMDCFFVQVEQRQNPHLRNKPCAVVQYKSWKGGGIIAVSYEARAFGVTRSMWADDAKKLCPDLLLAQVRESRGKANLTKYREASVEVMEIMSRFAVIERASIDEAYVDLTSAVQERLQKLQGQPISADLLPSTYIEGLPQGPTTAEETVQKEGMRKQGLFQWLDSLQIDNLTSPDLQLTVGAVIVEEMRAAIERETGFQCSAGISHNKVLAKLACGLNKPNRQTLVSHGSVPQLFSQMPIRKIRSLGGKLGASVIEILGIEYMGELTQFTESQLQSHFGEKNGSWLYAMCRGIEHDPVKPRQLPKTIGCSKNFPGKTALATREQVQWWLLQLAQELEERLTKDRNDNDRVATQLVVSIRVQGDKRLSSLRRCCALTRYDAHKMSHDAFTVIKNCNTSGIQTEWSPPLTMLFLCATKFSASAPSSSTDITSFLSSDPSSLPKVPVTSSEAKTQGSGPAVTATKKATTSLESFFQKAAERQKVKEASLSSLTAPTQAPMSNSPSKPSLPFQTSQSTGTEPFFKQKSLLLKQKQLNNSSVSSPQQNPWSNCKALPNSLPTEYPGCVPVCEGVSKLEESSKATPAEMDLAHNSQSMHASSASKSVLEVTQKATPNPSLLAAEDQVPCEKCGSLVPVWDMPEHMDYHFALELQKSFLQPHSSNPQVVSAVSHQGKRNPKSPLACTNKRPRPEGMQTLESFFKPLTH", "assay": "DNA polymerase assay, human pol η", "description": "(§1) Pol α was purified from calf thymus by immuno-affinity column chromatography as described by Tamai et al.. Recombinant rat pol β was purified from E. coli JMpβ5 as described by Date et al.. The human pol γ catalytic gene was cloned into pFastBac. Histidine-tagged enzyme was expressed using the BAC-TO-BAC HT Baculovirus Expression System according to the supplier's manual (LIFE TECHNOLOGIES, MD, USA) and purified using ProBoundresin (Invitrogen Japan, Tokyo, Japan). Human pols δ and ε were purified by the nuclear fractionation of human peripheral blood cancer cells (Molt-4) using the second subunit of pols δ and ε-conjugated affinity column chromatography, respectively. Recombinant human pols η and ι tagged with His6 at their C-terminal were expressed in SF9 insect cells using the baculovirus expression system, and were purified as described previously. A truncated form of pol κ (i.e., hDINB1DC) with 6 x His-tags attached at the C-terminal was overproduced using the BAC-to-BAC Baculovirus Expression System kit (GIBCO BRL, MD, USA) and purified as described previously. […]\n(§2) For pols, poly(dA)/oligo(dT)12-18 (A/T = 2/1) and dTTP were used as the DNA template-primer and nucleotide (i.e., dNTP) substrate, respectively. […] Activity without the inhibitor was considered 100%, and the remaining activity at each concentration of the inhibitor was determined relative to this value. […]"}, "[2]": {"biological_target": "T2, Human DNA polymerase κ (Homo sapiens, UniProt Q9UBT6)", "T2 construct": "A truncated form of pol κ (i.e., hDINB1DC); 6xHis (C); made in house; host or cells: baculovirus expression system (insect cells)", "T2 sequence (Q9UBT6 1-560 limits assumed)": "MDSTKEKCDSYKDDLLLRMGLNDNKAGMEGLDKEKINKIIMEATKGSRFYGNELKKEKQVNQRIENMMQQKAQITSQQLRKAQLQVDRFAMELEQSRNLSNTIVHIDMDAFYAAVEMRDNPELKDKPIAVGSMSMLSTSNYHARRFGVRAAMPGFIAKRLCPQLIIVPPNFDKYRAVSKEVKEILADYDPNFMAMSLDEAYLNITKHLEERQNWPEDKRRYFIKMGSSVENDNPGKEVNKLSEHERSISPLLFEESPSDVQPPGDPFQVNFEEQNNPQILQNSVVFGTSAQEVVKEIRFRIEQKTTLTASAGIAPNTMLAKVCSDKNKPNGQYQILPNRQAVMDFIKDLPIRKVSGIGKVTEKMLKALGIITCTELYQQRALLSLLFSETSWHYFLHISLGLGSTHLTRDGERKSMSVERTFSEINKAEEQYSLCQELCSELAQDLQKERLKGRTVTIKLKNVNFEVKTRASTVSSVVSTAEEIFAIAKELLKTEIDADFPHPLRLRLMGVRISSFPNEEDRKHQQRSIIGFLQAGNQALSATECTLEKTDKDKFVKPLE", "assay": "DNA polymerase assay, human pol κ", "description": "as §1, §2"}, "[3]": {"biological_target": "Cherry salmon DNA polymerase δ (Oncorhynchus masou, UniProt Z9UCE0HTX2)", "sequence (Z9UCE0HTX2 1-856)": "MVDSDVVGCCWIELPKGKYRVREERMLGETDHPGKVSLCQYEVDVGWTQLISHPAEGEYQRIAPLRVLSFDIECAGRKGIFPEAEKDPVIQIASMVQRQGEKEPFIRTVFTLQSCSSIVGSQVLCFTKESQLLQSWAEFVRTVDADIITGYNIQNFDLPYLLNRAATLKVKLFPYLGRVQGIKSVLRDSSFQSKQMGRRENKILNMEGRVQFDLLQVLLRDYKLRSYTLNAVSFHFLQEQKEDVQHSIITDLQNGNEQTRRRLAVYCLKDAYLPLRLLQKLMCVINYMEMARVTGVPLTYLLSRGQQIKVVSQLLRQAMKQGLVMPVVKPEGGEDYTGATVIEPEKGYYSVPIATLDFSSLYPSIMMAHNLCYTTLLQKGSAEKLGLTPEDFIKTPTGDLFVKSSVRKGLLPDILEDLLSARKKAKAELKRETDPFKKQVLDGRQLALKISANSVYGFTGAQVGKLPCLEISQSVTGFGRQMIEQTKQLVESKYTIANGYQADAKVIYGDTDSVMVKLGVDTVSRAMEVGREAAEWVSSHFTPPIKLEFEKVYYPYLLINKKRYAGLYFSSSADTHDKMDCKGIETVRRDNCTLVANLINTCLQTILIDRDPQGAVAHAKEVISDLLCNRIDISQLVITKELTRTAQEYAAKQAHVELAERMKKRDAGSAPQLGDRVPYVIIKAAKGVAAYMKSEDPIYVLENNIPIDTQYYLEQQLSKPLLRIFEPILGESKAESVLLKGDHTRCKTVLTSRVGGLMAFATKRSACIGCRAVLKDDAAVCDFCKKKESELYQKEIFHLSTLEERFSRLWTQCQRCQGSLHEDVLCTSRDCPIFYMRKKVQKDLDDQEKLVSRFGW", "assay": "DNA polymerase assay, fish pol δ"}}, "data": [{"smiles": "CC1=CC[C@H]2C(C)(C)CCC[C@]2(C)[C@H]1CCCCCCCCCCCCCCCCC(=O)O", "note": "(relative stereo) [compound 11, (1S*,4aS*,8aS*)-17-(1,4,4a,5,6,7,8,8a-octahydro-2,5,5,8a-tetramethylnaphthalen-1-yl)heptadecanoic acid]", "values": [{"measurement": "IC50", "setting": "[1]", "result": "7.45 ± 0.37", "unit": "µM"}, {"measurement": "IC50", "setting": "[2]", "result": "7.2 ± 0.36", "unit": "µM"}, {"measurement": "IC50", "setting": "[3]", "result": "4.3 ± 0.22", "unit": "µM"}]}]}
